This test addresses T1, nanoLuc TRAP1 (Homo sapiens, UniProt Q12931).
T1 construct: expressed in transfected cells; host or cells: SH-SY5Y cells, transient transfection with FuGENE HD
T1 sequence (Q12931 60-704): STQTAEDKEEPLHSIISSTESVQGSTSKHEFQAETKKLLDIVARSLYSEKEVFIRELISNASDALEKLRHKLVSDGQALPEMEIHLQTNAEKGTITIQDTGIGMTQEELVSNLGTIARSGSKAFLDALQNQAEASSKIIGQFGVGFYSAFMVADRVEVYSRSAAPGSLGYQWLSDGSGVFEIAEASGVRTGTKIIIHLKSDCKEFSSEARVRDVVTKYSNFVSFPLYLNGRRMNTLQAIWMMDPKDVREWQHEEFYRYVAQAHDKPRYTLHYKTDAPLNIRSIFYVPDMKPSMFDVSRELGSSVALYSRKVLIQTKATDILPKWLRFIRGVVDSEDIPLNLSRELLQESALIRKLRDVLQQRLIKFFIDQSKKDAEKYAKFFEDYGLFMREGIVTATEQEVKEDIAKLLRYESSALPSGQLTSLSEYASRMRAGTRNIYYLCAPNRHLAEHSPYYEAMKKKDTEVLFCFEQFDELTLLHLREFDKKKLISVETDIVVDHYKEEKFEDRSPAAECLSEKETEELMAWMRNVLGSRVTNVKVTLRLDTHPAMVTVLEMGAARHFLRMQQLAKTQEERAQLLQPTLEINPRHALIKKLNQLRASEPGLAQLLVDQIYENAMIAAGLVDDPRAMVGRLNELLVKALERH
Put plainly: NanoBRET in-cell target engagement assay. It counts as binding. The note with it: probe-385, 1 µM; live SHSY5Y cells; FIG. 2. As to the method:
In-cell target engagement assays were performed as described in Robers M.B. et al. (2019) Quantitative, Real-Time Measurements of Intracellular Target Engagement Using Energy Transfer. In: Ziegler S., Waldmann H. (eds) Systems Chemical Biology. Methods in Molecular Biology, vol 1888. Humana Press, New York, NY; Machleidt et al., ACS Chem. Biol. 2015, 10, 8, 1797-1804; or Vasta et al., Cell Chemical Biology 25, 206-214, Feb. 15, 2018; or as described herein.
Below is a protocol for transient transfection of SHSY5Y cells with NanoLuc® fusions. • 1. Cultivate SHSY5Y cells appropriately prior to assay in MEM w NEAA supplemented with 10% FBS. • 2. Remove medium from cell flask via aspiration, trypsinize, and allow cells to dissociate from the flask. • 3. Neutralize trypsin using growth medium and pellet cells via centrifugation at 200 g for 5 minutes. • 4. Aspirate medium and re-suspend cells into a single cell suspension using complete cell culture medium. • 5. Adjust the cell density to 300 K/mL in cell culture medium in a sterile, conical tube. • 6. Prepare lipid:DNA complexes as follows (this covers two assay plates, adjust numbers for more plates) • a. Prepare a 10 µg/mL solution of DNA in Opti-MEM without serum. This solution should contain the following ratios of carrier DNA and DNA encoding NanoLuc® fusion. • i. 5.0 µg/mL of Transfection Carrier DNA (pGEM) • ii. […]
In general terms: In BRET a luciferase serves as donor, and the signal depends on an acceptor being close.

Results on 1 compound are retold here after patent publication US20230218632A1, “CYCLIC SULFONAMIDE DERIVATIVES AS TRAP1 MODULATORS AND USES THEREOF” (Amathus Therapeutics, Inc., priority 2020, published 2023).

For the compound `O=C(Nc1ccc2c(c1)S(=O)(=O)N(c1ccc(Br)cc1)CCO2)c1cnc(-c2ccccc2)[nH]1` [Compound 1331, N-(2-(4-bromophenyl)-1,1-dioxido-3,4-dihydro-2H-benzo[b][1,4,5]oxathiazepin-8-yl)-2-phenyl-1H-imidazole-5-carboxamide], the “displacement of nanoBRET tracer” value was “displacing the nanoBRET tracer molecule”.
